What all share (type): cell-based
The subject of one assay is phosphorylated GSK3. Description: Cellular pGSK3 assay (phospho-GSK3 Ser9 sandwich ELISA). The settings on record: Homo sapiens; MCF7 cells, 48h incubation, IC50 of pGSK3 inhibition. The protocol: In order to study the cellular activity of the compounds according to the present invention, an ELISA-based assay has been established for the phosphorylated protein glycogen synthetase kinase 3 (GSK3). The assay is based on a solid phase sandwich ELISA that detects endogenous levels of phosphorylated GSK3 using a phospho-GSK3 (Ser9) specific antibody (BioSource International, Inc.; Catalog #KHO0461). After incubation with cell lysates, the coated antibody captures the phosphorylated GSK3 protein. Following extensive washing, GSK3 polyclonal antibody is added to detect the captured phospho-GSK3 protein. Secondary antibody (anti-rabbit IgG-HRP) is then used to recognize the bound detection antibody. After the second incubation and washing to remove all the excess anti-rabbit IgG-HRP, a substrate solution is added, which is acted upon by the bound enzyme to produce color. The intensity of this colored product is directly proportional to the concentration of GSK-3β [pS9] present in the original specimen. MCF7 cells (ATCC HTB-22) were seeded into 96 well fate bottom plates at a density of 10000 cells/well. After 24 h 1 µl each of the compound dilutions (test compounds were dissolved as 10 mM solutions in dimethylsulfoxide (DMSO) and subsequently diluted) were added into each well of the 96 well plates and incubated for 48h at 37°C in a humidified athmosphere containing 5% CO2. Cells were harvested and lysed in cell extraction buffer (10 mM Tris, pH 7.4, 100 mM NaCl, 1 mM EDTA, 1 mM EGTA, 1 mM NaF, 20 mM Na4P2O7, 2 mM Na3VO4, 1% Triton X-100, 10vol% glycerol, 0.1vol% SDS, 0.5vol% deoxycholate, 1 mM phenylmethylsulfonylfluorid (PMSF)). The lysate were centrifuged for 10 min. at 4°C and the supernatant were transferred to a new tube. 50 µl of sample diluent (standard diluent buffer, Biosource) were added and 100 µl of cell lysate transferred into the tube and vortexed. 100 µl of each diluted cell lysate were added to the appropriate ELISA well plate and incubated for 3h at room temperature. The plates were washed 4 times with 1x wash buffer (Biosource). 50 µl of detection antibody (GSK3 (Ser9) detection antibody; BioSource) were added to each well and incubated for 30 min. at room temperature. The washing procedure was repeated between each step. 100µl of HRP-linked secondary antibody (anti-mouse IgG HRP-linked antibody) were added to each well and incubated for 30 min. at room temperature. 100µl of TMB substrate (0.05vol% 3,3',5,5' tetramethylbenzidine, 0.1vol% hydrogen peroxide, complex polypeptides in a buffered solution; Biosource) were added to each well and incubated for 30 min. at room temperature. Finally 100 µl of Stop solution (0.05vol% α and β unsaturated carbonyl compound) were added to each well and the plate were shaked gently for a few seconds. The absorbance was measured at λ = 450 nm (Wallac Victor2; Perkin Elmer, USA) within 30 min. after adding the stop solution. The analysis of the data was performed using a statistical program (Excel; Microsoft, USA) and the IC50 of pGSK3 inhibition was determined.
(ELISA stands for enzyme-linked immunosorbent assay.)

Assay [1] concerns phosphorylated Akt protein. In words: Cellular PI3K / Akt pathway assay (phospho-Akt Ser473 sandwich ELISA). The settings on record: Homo sapiens; MCF7 cells, ß-Heregulin (20ng/ml) stimulation, 48h incubation. The protocol: In order to study the cellular activity of the compounds according to the present invention, an Enzyme Linked Immunosorbent Assay (ELISA)-based assay has been used specific phospho-AKT. The assay is based on a Sandwich ELISA kit (PathScan™ Phospho-Akt1 (Ser473); Cell Signaling, USA; #7160). The ELISA Kit detects endogenous levels of phosphorylated Akt protein. A phospho-Akt (Ser473) antibody (Cell Signaling, USA; #9271) has been coated onto the microwells. After incubation with cell lysates, the coated antibody captures the phosphorylated Akt protein. Following extensive washing, Akt1 monoclonal antibody (Cell Signaling, USA; #2967) is added to detect the captured phospho-Akt1 protein. HRP-linked anti-mouse antibody (HRP: horseradish peroxidase; Cell Signaling, USA; #7076) is then used to recognize the bound detection antibody. HRP substrate (= 3,3',5,5'-tetramethylbenzidine (TMB); Cell Signaling, USA; #7160) is added to develop colour. The magnitude of optical density for this developed color is proportional to the quantity of phosphorylated Akt protein. MCF7 cells (ATCC HTB-22) are seeded into 96 well fate bottom plates at a density of 10000 cells/well. 24 hours after seeding, the cells are serum starved using low-serum medium (IMEM media including 0,1% charcoal treated FCS (FCS: fetal calf serum)). […] To stimulate Akt phosphorylation, ß-Heregulin (20ng/ml ß-HRG) is added in parallel to the compounds. Wells containing unstimulated control cells (no ß-Heregulin stimulation) are incubated with or without the diluted compound. Wells containing untreated control cells (no compound) are filled with medium containing 0.5% v:v DMSO and are or are not stimulated with ß-Heregulin. Cells are harvested and lysed with brief sonification in 1x cell lysis buffer (20mM Tris (pH7.5), 150 mM NaCl, 1 mM ethylene diaminetetraacetate (EDTA), 1 mM ethylene glycolbis(2-aminoethyl)-N,N,N',N'-tetraacetic acid (EGTA), 1vol% Triton X-100, 2.5mM sodium pyrophosphate, 1 mM β-glycerolphosphate, 1 mM Na3VO4, 1µg/ml leupeptin). The lysate is centrifuged for 10 min. at 4°C and the supernatant is transferred to a new tube. 100 µl of sample diluent (0.1vol% Tween-20, 0.1vol% sodium azide in phosphate buffered saline (PBS)) are added to a microcentrifuge tube and 100 µl of cell lysate are transferred into the tube and vortexed. 100 µl of each diluted cell lysate are added to the appropriate ELISA well, and incubated overnight at 4°C. The plates are washed 4 times with 1x wash buffer (1vol% tween-20, 0.33vol% thymol, in PBS). Next 100 µl of detection antibody (Akt1 (2H10) monoclonal detection antibody; Cell Signaling, USA; #2967) are added to each well and incubation continued for 1h at 37°C. The washing procedure is repeated between each step. 100µl of secondary antibody (anti-mouse IgG HRP-linked antibody; Cell Signaling, USA; #7076) are added to each well and incubated for 30 min. at 37°C. Than, 100µl of TMB substrate (0.05% 3,3',5,5' tetramethylbenzidine, 0.1 % hydrogen peroxide, complex polypeptides in a buffered solution; Cell Signaling, USA; #7160) are added to each well and incubated for 30 min. at 25°C. Finally 100 µl of STOP solution (0.05vol% α and β unsaturated carbonyl compound) are added to each well and the plate are shaked gently. The absorbance is measured at λ =450 nm (Wallac Victor2; Perkin Elmer, USA) within 30 min. after adding the STOP solution. The analysis of the data is performed using a statistical program (Excel; Microsoft, USA). Preferred compounds show an inhibitory activity towards Akt phosphorylation below 10µM.

In another assay the test system is OvCAR3 cells. Description: Cellular proliferation / Cytotoxicity assay (Alamar Blue / Resazurin cell viability). The settings on record: Homo sapiens, OVCAR-3, 48h incubation, read-out: Anti-proliferative / Cytotoxic activity (OvCAR3 cells). The protocol: Wells containing untreated control cells were filled with 200 µl DMEM (Dulbecco's Modified Eagle Medium) containing 0.5vol% v:v DMSO. The cells are then incubated with the substances for 48h at 37°C in a humidified atmosphere containing 5vol% CO2. To determine the viability of the cells, 20 µl of a Resazurin solution (90mg / I) are added. […] Viabilities are expressed as % values.
For orientation: Resazurin is reduced to fluorescent resorufin, in cell work by metabolically active cells.

The structures appear in SMILES notation. pIC50: −log10 of the molar value.

In the case of `N#Cc1ccn2c(-c3ccccc3)c(-c3ccc(CN4CCC(c5n[nH]c(-c6ccccn6)n5)CC4)cc3)nc2c1` [Example 29, 3-phenyl-2-(4-{[4-(5-pyridin-2-yl-1,2,4-triazol-3-yl)piperidin-1-yl]methyl}phenyl)imidazo[1,2-a]pyridine-7-carbonitrile], the pIC50 with phosphorylated GSK3 was over 6.00; in assay [1], over 6.00; in the assay on OvCAR3 cells it was over 5.00.
Take `c1ccc(-c2c(-c3ccc(CN4CCC(c5n[nH]c(-c6ccccn6)n5)CC4)cc3)nc3ncccn23)cc1` [Example 1, 3-phenyl-2-(4-{[4-(5-pyridin-2-yl-1,2,4-triazol-3-yl)piperidin-1-yl]methyl}phenyl)imidazo[1,2-a]pyrimidine]: the pIC50 is 5.00 to 6.00 with phosphorylated GSK3, over 6.00 in assay [1] and over 5.00 with OvCAR3 cells.
In the same order, the values of `c1ccc(-c2nc(C3CCN(Cc4ccc(-c5nc6ncccn6c5-c5ccsc5)cc4)CC3)n[nH]2)nc1` [Example 34, 2-(4-{[4-(5-pyridin-2-yl-1,2,4-triazol-3-yl)piperidin-1-yl]methyl}phenyl)-3-(3-thienyl)imidazo[1,2-a]pyrimidine] are over 6.00, over 6.00 and over 5.00.
In the same order, the values of `Clc1ccc2nc(-c3ccc(CN4CCC(c5nnc(-c6ccccn6)[nH]5)CC4)cc3)c(-c3ccccc3)n2c1` [Example 7, 6-chloro-3-phenyl-2-(4-{[4-(5-pyridin-2-yl-4H-1,2,4-triazol-3-yl)piperidin-1-yl]methyl}phenyl)imidazo[1,2-a]pyridine] are 5.00 to 6.00, over 6.00 and over 5.00.
As for `COc1ccc(-c2c(-c3ccc(CN4CCC(c5n[nH]c(-c6ccccn6)n5)CC4)cc3)nc3ncccn23)cc1` [Example 20, 3-(4-methoxyphenyl)-2-(4-{[4-(5-pyridin-2-yl-1,2,4-triazol-3-yl)piperidin-1-yl]methyl}phenyl)imidazo[1,2-a]pyrimidine], the pIC50 (in the assay with phosphorylated GSK3; in assay [1]; with OvCAR3 cells) was under 5.00 in each case.
Take `COc1nccn2c(-c3ccccc3)c(-c3ccc(CN4CCC(c5n[nH]c(-c6ccccn6)n5)CC4)cc3)nc12` [Example 27, 8-methoxy-3-phenyl-2-(4-{[4-(5-pyridin-2-yl-1,2,4-triazol-3-yl)piperidin-1-yl]methyl}phenyl)imidazo[1,2-a]pyrazine]: the pIC50 in the assay with phosphorylated GSK3 is 5.00 to 6.00; in assay [1], over 6.00; in the assay on OvCAR3 cells, over 5.00.
For `c1ccc(-c2c(-c3ccc(CN4CCC(c5n[nH]c(-c6ccccn6)n5)CC4)cc3)nc3sccn23)cc1` [Example 10, 5-phenyl-6-(4-{[4-(5-pyridin-2-yl-1,2,4-triazol-3-yl)piperidin-1-yl]methyl}phenyl)imidazo[2,1-b][1,3]thiazole], in that order: over 6.00, over 6.00 and over 5.00.
Consider `COc1ccc2nc(-c3ccc(CN4CCC(c5n[nH]c(-c6ccccn6)n5)CC4)cc3)c(-c3ccccc3)n2n1` [Example 32, 6-methoxy-3-phenyl-2-(4-{[4-(5-pyridin-2-yl-1,2,4-triazol-3-yl)piperidin-1-yl]methyl}phenyl)imidazo[1,2-b]pyridazine], for which the pIC50 in the assay on phosphorylated GSK3 was 5.00 to 6.00; in assay [1], over 6.00; with OvCAR3 cells, over 5.00.
For `Brc1ccc2nc(-c3ccc(CN4CCC(c5n[nH]c(-c6ccccn6)n5)CC4)cc3)c(-c3ccccc3)n2c1` [Example 6, 6-bromo-3-phenyl-2-(4-{[4-(5-pyridin-2-yl-1,2,4-triazol-3-yl)piperidin-1-yl]methyl}phenyl)imidazo[1,2-a]pyridine], in that order: 5.00 to 6.00, over 6.00 and over 5.00.
In the same order, the values of `NC(=O)c1ccn2c(-c3ccccc3)c(-c3ccc(CN4CCC(c5n[nH]c(-c6ccccn6)n5)CC4)cc3)nc2c1` [Example 38, 3-phenyl-2-(4-{[4-(5-pyridin-2-yl-1,2,4-triazol-3-yl)piperidin-1-yl]methyl}phenyl)imidazo[1,2-a]pyridine-7-carboxamide] are over 6.00, over 6.00 and over 5.00.
For `Fc1ccc(-c2c(-c3ccc(CN4CCC(c5n[nH]c(-c6ccccn6)n5)CC4)cc3)nc3ccccn23)cc1` [Example 9, 3-(4-fluorophenyl)-2-(4-{[4-(5-pyridin-2-yl-1,2,4-triazol-3-yl)piperidin-1-yl]methyl}phenyl)imidazo[1,2-a]pyridine], the pIC50 in the assay on phosphorylated GSK3 was 5.00 to 6.00; in assay [1], 5.00 to 6.00; in the assay with OvCAR3 cells, under 5.00.
Take `c1ccc(-c2nc(C3CCN(Cc4ccc(-c5nc6ccccn6c5-c5cccs5)cc4)CC3)n[nH]2)nc1` [Example 17, 2-(4-{[4-(5-pyridin-2-yl-1,2,4-triazol-3-yl)piperidin-1-yl]methyl}phenyl)-3-(2-thienyl)imidazo[1,2-a]pyridine]: the pIC50 in the assay on phosphorylated GSK3 was 5.00 to 6.00; in assay [1], over 6.00; with OvCAR3 cells, over 5.00.

(Values after EP2062893A1, “Fused imidazoles for cancer treatment” (Bayer Schering Pharma AG, priority 2007, dated 2009).)
